Reference: patent publication EP4745196A1, “RESIN COMPOSITION” (LG Chem, Ltd., priority 2023, dated 2025)

Tests used:
[1] = endothermic substance; cited from earlier work
[2] = Measurement of pyrolysis temperature by differential scanning calorimeter; assay type: physicochemical; conditions: endothermic substance; DSC, heating rate 10°C/min, temperature at maximum heat flow
Description: The endothermic substance may have a pyrolysis temperature of 50°C or more. The pyrolysis temperature of the endothermic substance may be 300°C or less. The pyrolysis temperature may also be referred to as a temperature at which the endothermic substance undergoes an endothermic reaction (endothermic reaction temperature). The pyrolysis may mean that a material is chemically decomposed into a simpler material when heat has been applied thereto. The pyrolysis temperature may mean a temperature at which the pyrolysis occurs. The pyrolysis temperature of the endothermic substance may be 300°C or less, 280°C or less, 260°C or less, 240°C or less, 220°C or less, 200°C or less, 180°C or less, 160°C or less, 140°C or less, 120°C or less, or 100°C or less. The pyrolysis temperature of the endothermic substance may be specifically 50°C or more, 60°C or more, 70°C or more, 80°C or more, 90°C or more, 100°C or more, 120°C or more, 140°C or more, 160°C or more, or 180°C or more. When the endothermic substance is heated to the pyrolysis temperature, it may be decomposed into components constituting the endothermic substance through endotherm. When the pyrolysis temperature of the endothermic substance is within the range, there is no or little endothermic reaction at a normal operating temperature of the battery, and if the thermal runaway of the battery occurs, a cooling effect may be provided to the ignited battery cell through the endothermic reaction (e.g., pyrolysis) of the endothermic substance, and it may be advantageous in terms of delaying thermal transfer to adjacent battery cells. The pyrolysis temperature may be a value measured while increasing the temperature at a rate of 10°C/min using a differential scanning calorimeter (DSC Q2000, TA Corporation). From the differential scanning calorimeter, a graph may be obtained in which the x-axis is temperatures (°C) and the y-axis is heat flows (W/g), and in the graph, the temperature at the point where a heat flow (W/g) value, for example, an absolute value of a heat flow (W/g) is maximum may be set as the pyrolysis temperature.
For endothermic substances used in Examples and Comparative Examples, pyrolysis temperatures were measured while increasing the temperature at a rate of 10°C/min using a differential scanning calorimeter (DSC Q2000, TA Corporation), and the results were described in Table 1. Specifically, 0.2 to 0.5 mg of a sample was placed in a crucible of the differential scanning calorimeter, and then a lid with a single hole penetrated with a punching needle was covered thereon. In a state where the crucible was placed in the center of a press, and a plunger was moved downward by turning a lever until no pressure was further applied downward, the crucible and lid were placed in the differential scanning calorimeter equipment, and a thermal analysis was performed. From the differential scanning calorimeter, a graph with temperature (°C) on the x-axis and heat flow (W/g) on the y-axis could be obtained, and the temperature at the point where the heat flow (W/g) value is maximum in the graph was defined as the pyrolysis temperature.

[3] = Measurement of solubility in water; assay type: physicochemical; conditions: endothermic substance; 20°C, added by 1g to 100 ml of water until precipitate
Description: The endothermic substance may be a water-soluble substance.
Specifically, while the samples were each added by 1g to 100 ml of water at 20°C, the weight of the sample before a precipitate occurred was measured. The presence of the precipitate was visually observed; if no precipitate has occurred, it is observed transparently.

Structure (SMILES)	Pyrolysis temperature [2] [°C]	Solubility in water [3] [g/100ml]	Thermal conductivity [1]
[O]=[Al][O][Al]=[O] [Al2O3]	2000	0	18 W/mK
[OH][Al]([OH])[OH] [Al(OH)3]	297	–	26 W/mK
OB(O)O [Example H3BO3, H3BO3]	136	–	1 or less W/mK
[Cl-].[K+] [KCl]	770	≥ 30	6.53 W/mK
[Mg+2].[OH-].[OH-] [Mg(OH)2]	330	–	42~60 W/mK
[O]=[Mg] [MgO]	2800	0	30 W/mK
[Cl-].[Na+] [NaCl]	801	–	3.13~3.87 W/mK

Second part, led by results:

Pyrolysis temperature [2] [°C]	Solubility in water [3] [g/100ml]	Structure (SMILES)	Thermal conductivity [1]
102	–	O.O.O.O.O.O.O.O.O.O.O.O.O.O.O.O.O.O.O=S(=O)([O-])[O-].O=S(=O)([O-])[O-].O=S(=O)([O-])[O-].[Al+3].[Al+3] [Al2(SO4)3·18H2O]	0.24~0.31 W/mK
90	–	O.O.O.O.O.O.O.O.O.O.O.O.O=S(=O)([O-])[O-].O=S(=O)([O-])[O-].[Al+3].[K+] [KAl(SO4)2·12H2O]	0.55 W/mK
714	–	[Cl-].[Cl-].[Mg+2] [MgCl2]	0.5 W/mK
107	–	O.O.O.O.O.O.[Cl-].[Cl-].[Mg+2] [MgCl2·6H2O]	0.15~0.96 W/mK
